molecular target: human sphingosine-1-phosphate receptor 1 (S1P1) (Homo sapiens, UniProt P21453); test: Inhibition of cAMP production (HTRF cAMP HiRange), S1P1 CHO-K1 cells; assay type: cell-based; details: inhibition of cAMP production; potency; read-out: hS1P1 CAMP pEC50 (converted)
Procedure, shortened: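 CHO-K1 cells co-expressing human S1P1 (C-terminal ProLink tag) and EA-β-arrestin2, plated overnight; after 30 min compound incubation at 37 °C, intracellular cAMP measured by HTRF TR-FRET following 1 h at room temperature. Values normalized to fingolimod.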

Sequence of human sphingosine-1-phosphate receptor 1 (S1P1) (P21453 whole entry): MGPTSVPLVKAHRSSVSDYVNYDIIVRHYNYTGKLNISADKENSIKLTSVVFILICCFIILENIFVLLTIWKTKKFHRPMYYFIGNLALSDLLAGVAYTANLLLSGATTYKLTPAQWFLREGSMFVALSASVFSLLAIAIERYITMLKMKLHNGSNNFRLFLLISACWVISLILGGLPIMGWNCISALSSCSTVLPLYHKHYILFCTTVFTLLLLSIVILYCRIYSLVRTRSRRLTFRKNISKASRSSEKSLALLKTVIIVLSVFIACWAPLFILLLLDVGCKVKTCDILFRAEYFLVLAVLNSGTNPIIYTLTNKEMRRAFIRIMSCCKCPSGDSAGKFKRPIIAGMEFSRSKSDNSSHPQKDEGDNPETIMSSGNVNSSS

Structure (SMILES) | EC50 [nM]
CCCCC1(CCCC)CC(=O)c2cc(-c3nc(-c4cccnc4)no3)ccc2O1 [Compound 188, 2,2-dibutyl-6-[3-(pyridin-3-yl)-1,2,4-oxadiazol-5-yl]-3,4-dihydro-2H-1-benzo-pyran-4-one] | > 316
Brc1ccccc1-c1noc(-c2ccc3[nH]nnc3c2)n1 [Compound 190, 5-[3-(2-bromophenyl)-1,2,4-oxadiazol-5-yl]-1H-1,2,3-benzotriazole] | > 316
Cc1ncccc1-c1nc(-c2ccc3c(c2)nnn3C(C)C)no1 [Compound 194, 3-(1-isopropyl-1H-benzo[d][1,2,3]triazol-5-yl)-5-(2-methyl-pyridin-3-yl)-1,2,4-oxadiazole] | > 316
COc1ccc(-c2noc(-c3ccc4c(c3)nnn4C3CCCC3)n2)cc1C(F)(F)F [Compound 197, 1-cyclopentyl-5-{3-[4-methoxy-3-(trifluoromethyl)phenyl]-1,2,4-oxadiazol-5-yl}-1H-1,2,3-benzotriazole] | > 316
Clc1ncccc1-c1noc(-c2ccc3c(c2)nnn3C2CCCC2)n1 [Compound 198, 5-[3-(2-chloro-pyridin-3-yl)-1,2,4-oxadiazol-5-yl]-1-cyclopenty1-1H-1,2,3-benzotriazole] | < 316
Clc1ncccc1-c1noc(-c2ccc3c(c2)nnn3CC2CC2)n1 [Compound 199, 5-[3-(2-chloropyridin-3-yl)-1,2,4-oxadiazol-5-yl]-1-(cyclopropyl-methyl)-1H-1,2,3-benzotriazole] | > 316
COc1cccnc1-c1noc(-c2ccc3c(c2)nnn3C2CCCC2)n1 [Compound 203, 1-cyclopentyl-5-[3-(3-methoxy-pyridin-2-yl)-1,2,4-oxadiazol-5-yl]-1H-1,2,3-benzotriazole] | > 316
CCCn1nnc2cc(-c3nc(-c4ccncc4)no3)ccc21 [Compound 205, 1-propyl-5-[3-(pyridin-4-yl)-1,2,4-oxadiazol-5-yl]-1H-1,2,3-benzotriazole] | > 316
Cc1ccncc1-c1noc(-c2ccc3c(c2)nnn3CC(C)(C)O)n1 [Compound 206, 2-methyl-1-{5-[3-(4-methylpyridin-3-yl)-1,2,4-oxadiazol-5-yl]-1H-1,2,3-benzotriazol-1-yl}propan-2-ol] | > 316
COc1ccccc1-c1noc(-c2ccc3c(c2)nnn3C(C)(C)C)n1 [Compound 207, 1-tert-butyl-5-[3-(2-methoxyphenyl)-1,2,4-oxadiazol-5-yl]-1H-1,2,3-benzotriazole] | < 316
C=CCNc1ccc(-c2nc(-c3ccc4[nH]ccc4c3)no2)cc1C#N [Compound 208, 5-(3-(1H-indol-5-yl)-1,2,4-oxadiazol-5-yl)-2-(allylamino) benzonitrile] | < 316
CCC1(CC)CC(=O)c2cc(-c3nc(-c4ccc(NC(C)=O)cc4)no3)ccc2O1 [Compound 209, N-(4-(5-(2,2-diethyl-4-oxochroman-6-yl)-1,2,4-oxadiazol-3-yl)phenyl)acetamide] | < 316
N#Cc1cc(-c2nc(-c3ccc4c(c3)CC(=O)N4)no2)ccc1NCC1CC1 [Compound 210, 2-((cyclopropyl-methyl)amino)-5-(3-(2-oxoindolin-5-yl)-1,2,4-oxadiazol-5-yl)benzonitrile] | < 316
O=C1CC2(CCOCC2)Oc2ccc(-c3nc(-c4cccnc4)no3)cc21 [Compound 214, 6-[3-(pyridin-3-yl)-1,2,4-oxadiazol-5-yl]-3,4-dihydrospiro[1-benzopyran-2,4′-oxane]-4-one] | > 316
Cc1ccccc1-c1cnc(-c2ccc3c(c2)nnn3C(C)C)s1 [Compound 216, 2-(1-isopropyl-benzotriazol-5-yl)-5-(o-tolyl)thiazole] | > 316
CCC1(CC)CC(=O)c2cc(-c3nnc(-c4ccc5c(c4)nnn5C(C)C)o3)ccc2O1 [Compound 223, 2,2-diethyl-6-(5-(1-isopropyl-1H-benzo[d][1,2,3]triazol-5-yl)-1,3,4-oxadiazol-2-yl)chroman-4-one] | > 316
C=CCNc1ccc(-c2nc(-c3ccc4c(c3)CC(=O)N4)no2)cc1C#N [Compound 224, 2-(allylamino)-5-(3-(2-oxoindolin-5-yl)-1,2,4-oxadiazol-5-yl)benzonitrile] | < 316
COc1ccccc1-c1noc(-c2ccc3c(c2)nnn3C2CCOCC2)n1 [Compound 231, 5-[3-(2-methoxy-phenyl)-1,2,4-oxadiazol-5-yl]-1-(oxan-4-yl)-1H-1,2,3-benzotriazole] | > 316
Brc1ccccc1-c1noc(-c2ccc3c(c2)nnn3C2CCOCC2)n1 [Compound 233, 5-[3-(2-bromophenyl)-1,2,4-oxadiazol-5-yl]-1-(oxan-4-yl)-1H-1,2,3-benzotriazole] | > 316
CSc1ccc(-c2nc(-c3ccc4c(c3)nnn4C3CCCC3)no2)cc1 [Compound 237, 3-(1-cyclopentyl-1H-benzo[d][1,2,3]triazol-5-yl)-5-(4-(methyl-thio)phenyl)-1,2,4-oxadiazole] | > 316
Cc1ccsc1-c1noc(-c2ccc3c(c2)nnn3CC2CC2)n1 [Compound 239, 1-(cyclopropyl-methyl)-5-[3-(3-methylthiophen-2-yl)-1,2,4-oxadiazol-5-yl]-1H-1,2,3-benzotriazole] | > 316
CCCn1nnc2cc(-c3nc(-c4cccc(C(F)(F)F)c4)no3)ccc21 [Compound 242, 1-propyl-5-{3-[3-(trifluoromethyl)phenyl]-1,2,4-oxadiazol-5-yl}-1H-1,2,3-benzotriazole] | > 316
CC(C)n1nnc2cc(-c3nc(-c4ccncc4)no3)ccc21 [Compound 244, 1-(propan-2-yl)-5-[3-(pyridin-4-yl)-1,2,4-oxadiazol-5-yl]-1H-1,2,3-benzotriazole] | < 316
Cc1oc(-c2ccc3c(c2)nnn3C(C)C)nc1-c1ccccc1 [Compound 247, 5-(5-methyl-4-phenyl-1,3-oxazol-2-yl)-1-(propan-2-yl)-1H-1,2,3-benzotriazole] | > 316
COc1ccc(-c2coc(-c3ccc4c(c3)nnn4C(C)C)n2)cc1 [Compound 250, 5-[4-(4-methoxy-phenyl)-1,3-oxazol-2-yl]-1-(propan-2-yl)-1H-1,2,3-benzotriazole] | > 316
CC(C)n1nnc2cc(-c3noc(-c4ccc(F)cc4)n3)ccc21 [Compound 255, 5-(4-fluorophenyl)-3-(1-isopropyl-benzotriazol-5-yl)-1,2,4-oxadiazole] | > 316
CCC1(CC)CC(=O)c2cc(-c3nc(-c4ccc(N)cc4)no3)ccc2O1 [Compound 256, 6-(3-(4-amino-phenyl)-1,2,4-oxadiazol-5-yl)-2,2-diethylchroman-4-one] | < 316

Results, then the compound that gave them:

EC50 [nM] | Structure (SMILES)
> 316 | Cc1ccccc1Cc1noc(-c2ccc3c(c2)nnn3C(C)C)n1 [Compound 202, 5-{3-[(2-methyl-phenyl)methyl]-1,2,4-oxadiazol-5-yl}-1-(propan-2-yl)-1H-1,2,3-benzotriazole]
> 316 | Cc1cc(C)cc(-c2noc(-c3ccc4c(c3)nnn4C(C)C)n2)c1 [Compound 204, 5-[3-(3,5-dimethy-lphenyl)-1,2,4-oxadiazol-5-yl]-1-(propan-2-yl)-1H-1,2,3-benzotriazole]
> 316 | CCC1(CC)CC(=O)c2cc(-c3nc(-c4ccc5[nH]cnc5c4)no3)ccc2O1 [Compound 211, 6-(3-(1H-benzo[d]imidazol-5-yl)-1,2,4-oxadiazol-5-yl)-2,2-diethylchroman-4-one]
< 316 | CCC1(CC)CC(=O)c2cc(-c3nc(-c4ccncc4OC)no3)ccc2O1 [Compound 212, 2,2-diethyl-6-(3-(3-methoxypyridin-4-yl)-1,2,4-oxadiazol-5-yl)chroman-4-one]
> 316 | COc1ccc(-c2noc(-c3ccc4c(c3)nnn4C(C)C)n2)cc1OC [Compound 230, 3-(3,4-dimethoxy-phenyl)-5-(1-isopropyl-1H-benzo[d][1,2,3]triazol-5-yl)-1,2,4-oxadiazole]
> 316 | Fc1ccc(-c2noc(-c3ccc4c(c3)nnn4C3CCCC3)n2)cc1 [Compound 232, 1-cyclopentyl-5-[3-(4-fluorophenyl)-1,2,4-oxadiazol-5 yl]-1H-1,2,3-benzotriazole]
> 316 | Cc1ccc(-c2noc(-c3ccc4c(c3)nnn4C(C)C)n2)cn1 [Compound 236, 5-[3-(6-methylpyridin-3-yl)-1,2,4-oxadiazol-5-yl]-1-(propan-2-yl)-1H-1,2,3-benzotriazole]
> 316 | OCCn1nnc2cc(-c3noc(-c4ccccc4Br)n3)ccc21 [Compound 238, 2-(5-(5-(2-bromo-phenyl)-1,2,4-oxadiazol-3-yl)-1H-benzo[d][1,2,3]triazol-1-yl)ethanol]
> 316 | CC(C)n1nnc2cc(-c3noc(-c4ccccc4OC(F)(F)F)n3)ccc21 [Compound 240, 3-(1-isopropyl-1H-benzo[d][1,2,3]triazol-5-yl)-5-(2-(trifluoro-methoxy)phenyl)-1,2,4-oxadiazole]
> 316 | CC(C)n1nnc2cc(-c3nc(-c4ccccn4)no3)ccc21 [Compound 241, 1-(propan-2-yl)-5-[3-(pyridin-2-yl)-1,2,4-oxadiazol-5-yl]-1H-1,2,3-benzotriazole]
> 316 | Cc1cccc(C)c1-c1noc(-c2ccc3c(c2)nnn3C(C)C)n1 [Compound 243, 3-(2,6-dimethyl-phenyl)-5-(1-isopropyl-1H-benzo[d][1,2,3]triazol-5-yl)-1,2,4-oxadiazole]
> 316 | Cc1ccccc1-c1noc(-c2ccc3c(c2)nnn3C2CCCCC2)n1 [Compound 245, 1-cyclohexyl-5-[3-(2-methylphenyl)-1,2,4-oxadiazol-5-yl]-1H-1,2,3-benzotriazole]
> 316 | COc1cccc(OC)c1-c1noc(-c2ccc3c(c2)nnn3C(C)C)n1 [Compound 251, 3-(2,6-dimethoxy-phenyl)-5-(1-isopropyl-benzotriazol-5-yl)-1,2,4-oxadiazole]
< 316 | CC1(C)CCC2(CC1)CC(=O)c1cc(-c3nc(-c4ccncc4)no3)ccc1O2 [Compound 254, 4′,4′-dimethyl-6-[3-(pyridin-4-yl)-1,2,4-oxadiazol-5-yl]-3,4-dihydrospiro[1-benzopyran-2,1′-cyclohexane]-4-one]

Reference: patent publication US20230114241A1, “METHODS OF TREATING EPILEPSY USING THE SAME” (Trevena, Inc., priority 2019, published 2023)
